Values joined by “and” are separate entries in the source; they are usually repeats but may differ in a detail not shown here. Equal entries are not always repeated. Structures can show the parent of a compound that is named as a salt. Where two headings read alike, the source gives them in different places.
Legend:
SH-SY5Y cells [1] = experiment: DCFH-DA assay of reactive oxygen species (ROS); type: cell-based, human; settings: lowest concentration of tiamulin, 72 h
Description: (§1) The human neuroblastoma (SH-SY5H), hepatoma (HepG2) and kidney cells (HEK 293) cells were purchased from the American Type Culture Collection: ATCCCRL-2266,ATCC HB-8065 and ATCC CRL-1573, respectively. These cells were cultured in Minimum Essential Medium Eagle (MEME) (ATCC). The media were supplemented with 10% FBS, 1% L-glutamine (and 1% antibiotic solution (P4333 Sigma). The cells were maintained in 75 cm^2 cell culture flasks (NUNC) in a humidified incubator at 37 °C in an atmosphere of 5% CO2. The medium was refreshed every two or three days, and the cells were subcultured by 0.25% trypsin–0.02% EDTA after reaching 70–80% confluence. Single cell suspensions were prepared and adjusted to a density of 2 × 10^5 cell/mL^−1 (SH-SY5H), 1 × 10^5 cell/mL^−1 (HepG2) and 1 × 10^5 cell/mL^−1 (HEK-293). The cell suspension was transferred to 96-well plates (100 µL/well) or Lab-Tek chamber slides (8 wells) (Nunc) for staining and incubated for 24 h before the exposure to the studied compounds. Stock solutions of tiamulin fumarate and cannabidiol were prepared in DMSO and diluted with culture medium to obtain a concentration range from 1.56 to 200 µg/mL and 1.56 or […], respectively. The selection of tiamulin concentrations was based on data from the literature and pilot studies. The final concentration of DMSO was 0.1% in the medium. The same final concentrations of the solvent and the 1% Trition-X 100 solution were used as the negative and positive controls, respectively. A total of 500 µM hydrogen peroxide (H2O2) in was used as the positive control in the DCFH assay. […] As a negative control, cultured cells were grown in the absence of studied compounds. […] Cytotoxicity was assessed after 72 h of exposure of the cells to the compounds. […]
(§2) Intracellular levels of ROS were evaluated using the redox-sensitive fluorescent dye DCFH-DA [62]. […] After 72 h of incubation, the fluorescence of 2′,7′-dichlorofluorescein (DCF) was measured. Fluorescence was determined at 485/530 nm using a fluorescence microplate reader (BioTek® Instruments Inc., Winooski, VT, USA).

HEK-293 cells = experiment: DCFH-DA assay of reactive oxygen species (ROS); type: cell-based, human; settings: HEK-293, lowest concentration of tiamulin, 72 h
Description: as §1, §2

HepG2 cells [2] = experiment: DCFH-DA assay of reactive oxygen species (ROS); type: cell-based, human; settings: HepG2, lowest concentration of tiamulin, 72 h
Description: as §1, §2

SH-SY5Y cells [3] = experiment: NRU assay (lysosomal activity); type: cell-based, human; settings: 72 h
Description: (§3) The cytotoxic potential of the veterinary drug and its mixtures with cannabidiol at two non-toxic concentrations: 1.56 and 3.15 µg/mL, on the human SH-SY5Y, HepG2 and HEK 293 cell lines was assessed by decreased viability of the cells within five biochemical endpoints: mitochondrial activity and lysosomal activity (MTT assays, reducing the tetrazolium dye MTT 3-(4,5-dimethylthiazol-2-yl)-2,5-diphenyltetrazolium bromide and neutral red uptake (NRU) assays), total protein content (TPC assay), cellular membrane integrity (leakage lactate dehydrogenase (LDH) assay) and DNA synthesis (the bromodeoxyuridine/5-bromo-2′-deoxyuridine incorporation into the DNA cells (BrdU) assay) after 72 h exposition. Data obtained from the measurement of the optical density in these assays were transformed to percentages in relation to the negative control group (0.1% DMSO in medium), considered to be 100% for the MTT, NRU, TPC and BrdU assays and 0% for the LDH assay. 1% Trition-X 100 solution in medium was used as the positive controls, (Figure 3).
(§4) The human neuroblastoma (SH-SY5H), hepatoma (HepG2) and kidney cells (HEK 293) cells were purchased from the American Type Culture Collection: ATCCCRL-2266,ATCC HB-8065 and ATCC CRL-1573, respectively. These cells were cultured in Minimum Essential Medium Eagle (MEME) (ATCC). The media were supplemented with 10% FBS, 1% L-glutamine (and 1% antibiotic solution (P4333 Sigma). The cells were maintained in 75 cm^2 cell culture flasks (NUNC) in a humidified incubator at 37 °C in an atmosphere of 5% CO2. The medium was refreshed every two or three days, and the cells were subcultured by 0.25% trypsin–0.02% EDTA after reaching 70–80% confluence. Single cell suspensions were prepared and adjusted to a density of 2 × 10^5 cell/mL^−1 (SH-SY5H), 1 × 10^5 cell/mL^−1 (HepG2) and 1 × 10^5 cell/mL^−1 (HEK-293). The cell suspension was transferred to 96-well plates (100 µL/well) or Lab-Tek chamber slides (8 wells) (Nunc) for staining and incubated for 24 h before the exposure to the studied compounds. Stock solutions of tiamulin fumarate and cannabidiol were prepared in DMSO and diluted with culture medium to obtain a concentration range from 1.56 to 200 µg/mL and 1.56 or 3.156 µg/mL, respectively. […] Cytotoxicity was assessed after 72 h of exposure of the cells to the compounds. […]
(§5) This method is based on staining living cells with neutral red, which readily diffuses through the plasma membrane and accumulates in lysosomes. […] After 10 min of shaking, the absorbance of the dissolved NR was measured using a Synergy 2 Multi-Mode Microplate Reader (BioTek® Instruments Inc., Winooski, VT, USA) at 540 nm using a blank as a reference. Cytotoxicity was expressed as a percentage of the negative control (0.1% DMSO in medium). […]

HEK 293 cells [4] = experiment: NRU assay (lysosomal activity); type: cell-based, human
Description: as §3, §4, §5

MDA-MB-231 = tested on: MDA-MB-231; design: method as in PMID 28399915; settings: MDA-MB-231, dose 6.25–100 µg/mL, treatment period 12–48 h; cited from earlier work
SH-SY5Y cells [5] = experiment: BrdU assay (DNA synthesis); type: cell-based, human; settings: 72 h
Description: as §3
(§6) The human neuroblastoma (SH-SY5H), hepatoma (HepG2) and kidney cells (HEK 293) cells were purchased from the American Type Culture Collection: ATCCCRL-2266,ATCC HB-8065 and ATCC CRL-1573, respectively. These cells were cultured in Minimum Essential Medium Eagle (MEME) (ATCC). The media were supplemented with 10% FBS, 1% L-glutamine (and 1% antibiotic solution (P4333 Sigma). The cells were maintained in 75 cm^2 cell culture flasks (NUNC) in a humidified incubator at 37 °C in an atmosphere of 5% CO2. The medium was refreshed every two or three days, and the cells were subcultured by 0.25% trypsin–0.02% EDTA after reaching 70–80% confluence. Single cell suspensions were prepared and adjusted to a density of 2 × 10^5 cell/mL^−1 (SH-SY5H), 1 × 10^5 cell/mL^−1 (HepG2) and 1 × 10^5 cell/mL^−1 (HEK-293). The cell suspension was transferred to 96-well plates (100 µL/well) or Lab-Tek chamber slides (8 wells) (Nunc) for staining and incubated for 24 h before the exposure to the studied compounds. Stock solutions of tiamulin fumarate and cannabidiol were prepared in DMSO and diluted with culture medium to obtain a concentration range from 1.56 to 200 µg/mL and 1.56 or 3.156 µg/mL, respectively. The selection of tiamulin concentrations was based on data from the literature and pilot studies. The final concentration of DMSO was 0.1% in the medium. The same final concentrations of the solvent and the 1% Trition-X 100 solution were used as the negative and positive controls, respectively. A total of 500 µM hydrogen peroxide (H2O2) in was used as the positive control in the DCFH assay. […] As a negative control, cultured cells were grown in the absence of studied compounds. Each concentration was tested in six replicates in three independent experiments. Cytotoxicity was assessed after 72 h of exposure of the cells to the compounds. The medium was not changed during the incubation time.
(§7) Cell proliferation was evaluated by BrdU assay using a Cell Proliferation ELISA, BrdU (colorimetric) kit (Roche, Switzerland), according to manufacturer’s instructions. Briefly, BrdU was incorporated in the place of thymidine into the DNA of cells under division. This BrdU was detected by an anti-BrdU antibody conjugated with peroxidase and the reaction product of the enzyme with the given substrate was quantified by measuring its absorbance. The absorbance (A) was measured at 370 nm and 492 nm in a Synergy 2 Multi-Mode Microplate Reader (BioTek® Instruments Inc., Winooski, VT, USA), using a blank as a reference.
(§8) This study was performed in three independent experiments. The obtained results are presented as mean values ± SD (standard deviation). The assessment of the cytotoxicity data used a one-way analysis of variance (ANOVA) followed by Dunnett’s post hoc test, which was applied to determine significance relative to the negative control. […]

HepG2 cells [6] = experiment: BrdU assay (DNA synthesis); type: cell-based, human; settings: HepG2, 72 h
Description: as §3, §6, §7, §8

HEK 293 cells [7] = experiment: BrdU assay (DNA synthesis); type: cell-based, human
Description: as §3, §6, §7, §8

HepG2 and HEK-293 cells = tested on: HepG2 and HEK-293 cells; design: method as in PMID 39241564, PMID 37709940; settings: 10 h of exposure, cited from earlier work
[8] = Homo sapiens, read-out: inhibited concentration (IC50), BrdU

Which results are given for C=C[C@]1(C)C[C@@H](OC(=O)CSCCN(CC)CC)[C@]2(C)[C@H](C)CC[C@]3(CCC(=O)[C@H]32)[C@@H](C)[C@@H]1O [T, tiamulin fumarate]?
increase in fluorescence intensity of the probes (ROS) (SH-SY5Y cells [1]): 66%; increase in fluorescence intensity of the probes (ROS) (HEK-293 cells): 91%; increase in fluorescence intensity of the probes (ROS) (HepG2 cells [2]): 44%; tiamulin concentration that inhibited lysosomal activity (SH-SY5Y cells [3]; significant (p ≤ 0.05) vs negative control): 1.56 µg/mL; IC50 (SH-SY5Y cells [3]; Homo sapiens, read-out: inhibited concentration (IC50), NRU): 2.1 ± 0.4 µg/mL; tiamulin concentration that inhibited lysosomal activity (HEK 293 cells [4]; HEK-293, 72 h): 25 µg/mL; IC50 (HEK 293 cells [4]; Homo sapiens, HEK293, 72 h, read-out: inhibited concentration (IC50), NRU): 34.5 ± 1.1 µg/mL; cell viability (MDA-MB-231): cell viability decreased with increasing dose; tiamulin concentration that inhibited DNA synthesis (SH-SY5Y cells [5]): 6.25 µg/mL; IC50 (SH-SY5Y cells [5]; [8]): 9.9 ± 1.1 µg/mL; tiamulin concentration that inhibited DNA synthesis (HepG2 cells [6]): 25 µg/mL; IC50 (HepG2 cells [6]; [8]): 13.9 ± 0.8 µg/mL; tiamulin concentration that inhibited DNA synthesis (HEK 293 cells [7]; HEK-293, 72 h): 12.5 µg/mL; IC50 (HEK 293 cells [7]; Homo sapiens, HEK293, 72 h, read-out: inhibited concentration (IC50), BrdU): 14.6 ± 1.3 µg/mL; concentrations with cytotoxic effects (HepG2 and HEK-293 cells; converted from µM): 49.4 µg/mL and 98.8 µg/mL; concentrations with cytotoxic effects (HepG2 and HEK-293 cells): 100 µM and 200 µM

— paper PMC11676896, “Protective Action of Cannabidiol on Tiamulin Toxicity in Humans—In Vitro Study” (International Journal of Molecular Sciences, 2024)
